Values quoted from earlier work, collected in publication PMC2810551 (Chemistry & biology, 2009).

System: CD4+ T cells expressing the MBP Ac1-11 specific Vα2.3/Vβ8.2 TCR
Conditions: immunization with MBP Ac1-11; B10.PL mice; ref [6]

Which “activation and expansion of specific CD4+ T cells” value does the source give for Ac-ASQKRPSQRSK [MBP Ac1-11] here?
Its value is “results in activation and expansion of CD4+ T cells expressing the MBP Ac1-11 specific Vα2.3/Vβ8.2 TCR”.
